# In patent publication US7279325B2, “Method for identifying antagonist compounds of the estrogen-related receptor 3 (ERR3) by using the x-ray structural coordinates of the ligand binding domain” (priority 2002, dated 2007):
# Changes are numbered by the printed parent chain.
# Assays:
# [1] = target: T1, ERR2 (Homo sapiens, UniProt O95718); settings: Coward et al. (2001); cited from earlier work
# T1 sequence (O95718 1-433): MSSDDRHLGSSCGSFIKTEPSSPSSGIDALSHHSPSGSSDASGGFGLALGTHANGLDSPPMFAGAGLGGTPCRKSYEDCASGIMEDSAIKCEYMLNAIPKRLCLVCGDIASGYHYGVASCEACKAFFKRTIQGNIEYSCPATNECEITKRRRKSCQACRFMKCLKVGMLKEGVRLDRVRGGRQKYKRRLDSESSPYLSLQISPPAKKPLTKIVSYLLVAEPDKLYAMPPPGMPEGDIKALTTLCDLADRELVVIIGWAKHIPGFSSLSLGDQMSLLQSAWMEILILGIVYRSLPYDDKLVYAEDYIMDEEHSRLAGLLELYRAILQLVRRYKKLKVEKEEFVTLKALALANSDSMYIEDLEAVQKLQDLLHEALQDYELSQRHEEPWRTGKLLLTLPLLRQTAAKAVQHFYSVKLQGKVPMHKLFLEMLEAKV
# [2] = target: T2, Gal4-ERR3 (Homo sapiens, UniProt P62508); test: Transient transfection luciferase reporter assay, Gal4-ERR3 in COS-1 cells; type: cell-based
# T2 construct: expressed in transfected cells; host or cells: COS-1
# T2 sequence (P62508 229-458): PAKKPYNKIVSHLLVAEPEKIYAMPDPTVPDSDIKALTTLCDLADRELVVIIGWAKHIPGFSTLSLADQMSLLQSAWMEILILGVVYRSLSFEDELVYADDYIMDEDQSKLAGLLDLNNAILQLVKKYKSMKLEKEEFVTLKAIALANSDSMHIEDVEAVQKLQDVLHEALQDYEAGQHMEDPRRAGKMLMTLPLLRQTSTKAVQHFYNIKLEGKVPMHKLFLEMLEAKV
# Protocol: FIG. 6: represents the transcriptional activities of wild-type and mutant ERR3 fusion proteins in transient transfection assays, wherein (A) COS-1 cells were transfected in 24-well plates with 250 ng per well of Gal4(5×)-TATA-LUC reporter and 50 ng of wt or mutant pCMX-Gal4-ERR3 expression plasmid. […] (B) Experiments were performed as described in (A) using 250 ng per well of Gal4(3×)-TK-LUC reporter plasmid and 50 ng of wt or mutant Gal4-ERR3 expression plasmid. […] FIGS. A to C represent an average of three independent experiments. The activity of the Gal4 DBD control was set to one.
# COS-1 and BHK cells were cultured in DMEM supplemented with 5% FCS, penicillin, streptomycin, and glutamine. Neuro2A cells were cultured in EMEM supplemented with 10% FCS, penicillin, streptomycin, glutamine, and non-essential amino acids. Transient transfection assays were carried out in 24-well plates (0.5×10^5 cells per well for COS-1 and Neuro2A cells, 0.25×10^5 cells per well for BHK cells) using the standard calcium phosphate coprecipitation technique as described in Greiner et al. (Greiner et al., 1996). Cells were transfected with 250 ng of Gal4(5×)-TATA-LUC, Gal4(3×)-TK-LUC, or ERE(2×)-TK-LUC reporter plasmid and 50 ng per well of pCMX-Gal4-ERR3 or pCMX-ERR3 expression plasmid. The empty plasmids pCMX-Gal4 and pCMX served as control. […]
# [3] = system: mutant ERR3 LBDs (A272F, A272L, F435L, L345I, L345I-F435L, L345I-F435L-F450L)/GST-SRC-1 RID complex; test: In vitro protein-protein interaction assay, mutant ERR3 LBDs with SRC-1 RID (native gels); type: biochemical, human
# Protocol: (§1) The His-tagged wt or mutant ERR3 LBDs, the GST-tagged SRC-1 RID, and GST were expressed in E. coli BL21(DE3) and partially purified by affinity chromatography using TALON (Clontech) or Glutathione Sepharose 4B (Pharmacia), respectively. […] After purification the proteins were dialyzed in assay buffer (20 mM Tris.HCl pH 8.0, 200 mM NaCl), and concentrated. For the protein-protein interaction assays […] (about 70 pmol) of His-tagged wt or mutant ERR3 LBD were mixed with […] (about 100 pmol) of GST-tagged SRC-1 RID or […] of GST and incubated on ice for 10 mins. […] Protein complexes were resolved on native polyacrylamide gradient gels (8%-25%) using the Phast System (Pharmacia).
# (§2) In vitro interaction assays with the RID (amino acids 617-764) of the coactivator SRC-1 has first been performed. Hexahistidine (His)-tagged ERR3, LBD and GST-tagged SRC-1 RID were partially purified by affinity chromatography, the proteins were mixed, and complex formation was monitored on native polyacrylamide gels. […] Complexes were separated on native polyacrylamide gradient gels.
# (§3) In addition, the ligand-binding pocket of ERR3 has been enlarged by either mutating F435 to leucine or by introducing a triple point mutation (L345I-F435L-F450L) which creates an “ERα-like” ligand-binding pocket.
# [4] = target: T3, mutant ERR3 LBDs (A272F, A272L, F435L, L345I, L345I-F435L, L345I-F435L-F450L)/GST-SRC-1 RID complex (Homo sapiens, UniProt P62508, F435L); test: as above; type: biochemical; settings: 10^−4M 4-OHT
# T3 construct: wt or mutant ERR3 LBDs (residues 229 to 458, human and murine receptor are identical); made in house; host or cells: E. coli BL21(DE3)
# T3 sequence (P62508 229-458 F435L): T2 sequence (P62508 229-458) with F207L
# Protocol: as §1, §2, §3
substance,measurement,setting,value
4-hydroxytamoxifen [4-OHT],binding to ERR2,[1],binds
same,activity of Gal4-ERR3,"[2]; 10^−6M 4-OHT, Gal4(5×)-TATA-LUC reporter",blocked efficiently
same,repression of the constitutive activity of Gal4-ERR3 below basal levels of the TK promoter,[2]; Gal4(3×)-TK-LUC reporter,neither 4-OHT nor DES repress
same,effect on the complex between GST-SRC-1 RID and the mutants A272F or A272L,"[3]; 10^−4M 4-OHT, ligand-binding cavity filled up",no effect
same,"antagonist effect on ERR3 LBD mutants that contain a F435L mutation (F435L, L345I-F435L, L345I-F435L-F450L) in vitro",[3]; 10^−4M ligand,still acts as an antagonist
same,effect on the ERR3(F435L)/GST-SRC-1 RID complex,[4],still disrupted
